1 compound from paper PMC5767327, “Tonically Active α2 Subunit-Containing Glycine Receptors Regulate the Excitability of Striatal Medium Spiny Neurons” (Frontiers in Molecular Neuroscience, 2018) can be followed below.

This experiment has as its target T1, GlyR α2 (native α2 subunit-containing glycine receptors of striatal medium spiny neurons) (Mus musculus, UniProt Q7TNC8).
T1 construct: gene Glra2; native full-length receptor in adult dorsal striatal slices; α2 homomer or α2β heteromer (Glrb) not resolved by authors; no glycine current in Glra2 knockout MSNs
As to the kind of experiment: whole-cell patch clamp, evoked chloride current, fast perfusion, Hill fit. It is filed as cell-based. Particulars: read-out: STP MSNs (n = 6); agonist; STP MSNs (Drd2-EGFP) in acute striatal slices, native receptor; -80 mV, 32°C; with gabazine, CNQX, DHβE, L-689,560, TTX; authors call it a higher boundary (diffusion in slice). The text has this: whole-cell patch clamp, evoked chloride current, fast perfusion, Hill fit on GlyR α2 (native α2 subunit-containing glycine receptors of striatal medium spiny neurons)

SMILES strings stand for the structures.

T1 sequence (Q7TNC8 28-452): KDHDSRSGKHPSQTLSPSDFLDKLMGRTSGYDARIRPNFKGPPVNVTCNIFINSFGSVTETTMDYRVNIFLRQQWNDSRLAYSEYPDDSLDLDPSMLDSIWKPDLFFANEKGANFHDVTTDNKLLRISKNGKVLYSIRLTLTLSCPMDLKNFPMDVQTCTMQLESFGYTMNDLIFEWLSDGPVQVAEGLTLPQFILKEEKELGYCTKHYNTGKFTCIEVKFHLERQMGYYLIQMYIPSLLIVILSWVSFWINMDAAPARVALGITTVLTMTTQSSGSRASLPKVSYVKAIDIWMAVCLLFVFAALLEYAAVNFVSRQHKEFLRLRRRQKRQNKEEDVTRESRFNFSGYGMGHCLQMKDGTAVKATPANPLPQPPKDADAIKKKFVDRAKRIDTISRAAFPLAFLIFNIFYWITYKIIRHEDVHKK

With `NCC(=O)O` [glycine], the EC50 is 317 ± 25.4 µM.
